Experiments:
[1] = tested on: SKBR3 and MCF7 human breast cancer cell lines; experiment: Fatty acid synthesis activity, [U-14C]-acetate pulse labeling of lipids; format: cell-based; conditions: for [U14C-acetate] incorporation into lipids: SKBR3 and MCF7, labeled for 2 hours after exposure to inhibitor; for dose range of maximal inhibition of FA synthesis: all cell lines tested
Procedure: The human breast cancer cell lines, SKBR3 and MCF7 were maintained in RPMI with 10% fetal bovine serum. Cells were screened periodically for Mycoplasma contamination (Gen-probe). All inhibitors were added as stock 5 mg/ml solutions in DMSO. For fatty acid synthesis activity determinations, 5×10^4 cells/well in 24 well plates were pulse labeled with [U-^14C]-acetate after exposure to drug, and lipids were extracted and quantified as described previously (Pizer, et al., 1988). For MCF7 cells, pathway activity was determined after 2 hours of inhibitor exposure.

MCF-7 cells [2] = experiment: Cell growth inhibition assay, crystal violet; format: cell-based, human; conditions: for growth inhibition: 48 hours after treatment, Example 12
MCF-7 cells [3] = experiment: Malonyl-CoA levels by reversed phase HPLC; format: cell-based, human; conditions: for malonyl-CoA levels increased over controls: 1 hour exposure at 10 μg/ml
Procedure: Malonyl-CoA levels were measured in MCF-7 cells using the HPLC method of Corkey, et al. (1988, “Analysis of acyl-coenzyme A esters in biological samples,” Methods in Enzymology, 166:55-70). Briefly, 2.5×10^5 cells/well in 24 well plates were subjected to 1.2 ml of 10% TCA at 4° C. after various drug treatments. The pellet mass was recorded and the supernatant was washed 6 times with 1.2 ml of ether and reduced to dryness using vacuum centrifugation at 25° C. Coenzyme-A esters were separated and quantitated using reversed phase HPLC on a 5μ Supelco C18 column with a Waters HPLC system running Millenium^32 software monitoring 254 nm as the maximum absorbance for coenzyme-A. The following gradients and buffers were utilized: Buffer A: 0.1 M potassium phosphate, pH 5.0, Buffer B: 0.1 M potassium phosphate, pH 5.0, with 40% acetonitrile. Following a 20 min. isocratic run with 92% A, 8% B at 0.4 ml/min, flow was increased to 0.8 ml/min over one minute whereupon a linear gradient to 10% B was run until 24 min. then held at 10% B until 50 min. where a linear gradient was run to 100% B at 55 min., completing at 60 min. The following coenzyme-A esters (Sigma) were run as standards: malonyl-CoA, acetyl-CoA, glutathione-CoA, succinyl-CoA, HMG-CoA, and free CoA. Samples and standards were dissolved in 50 μl of buffer A. Coenzyme-A esters eluted sequentially as follows: malonyl-CoA, glutathione-CoA, free CoA, succinyl-CoA, HMG-CoA, and acetyl-CoA. Quantitation of coenzyme-A esters was performed by the Millenium^32 software.

[4] = Single dose LD10 determination; format: in vivo; conditions: BALB/c mice
[5] = Toxicity to host in nude mice (tolerability, histology of liver and other host tissues, weight); format: in vivo, mouse
Procedure: (§1) Treatment began when measurable tumors developed about 10 days after inoculation. Eleven mice (divided among two separate experiments of 5 and 6 mice each) were treated intraperitoneally with wcekly doses of C75 at 30 mg/kg in 0.1 ml RPMI. […] Eleven control mice (divided in the same way as the treatment groups) received RPMI alone. Tumor volume was measured with calipers in three dimensions. Experiment was terminated when controls reached the surrogate endpoint.
(§2) In an additional parallel experiment to histologically examine treated and control tumors, 6 C75 treated and 6 vehicle control mice were sacrificed 6 hours after treatment. Tumor and normal tissues were fixed in neutral-buffered formalin, processed for routine histology, and immunohistochemistry for FAS was performed. Immunohistochemistry for FAS was performed on the MCF-7 xenografts using a mouse monoclonal anti-FAS antibody (Alo, et al., 1996) at 1:2000 on the Dako Immunostainer using the LSAB2 detection kit.

MCF-7 xenografts [6] = experiment: Growth of subcutaneous MCF-7 xenografts in athymic nude mice; format: in vivo, mouse; conditions: 30 mg/kg intraperitoneal weekly, after 32 days
Procedure: Subcutaneous flank xenografts of the human breast cancer cell line, MCF-7 in nu/nu female mice (Harlan) were used to study the anti-tumor effects of C75 in vivo. All animal experiments complied with institutional animal care guidelines. All mice received a 90-day slow-release subcutaneous estrogen pellet (Innovative Research) in the anterior flank 7 days before tumor inoculation. […] MCF-7 cells were xenografted from culture in DMEM supplemented with 10% FBS and insulin 10 μg/ml.
as §1

[7] = tested on: fatty acid synthesis in MCF-7 xenografts and liver; experiment: Ex vivo [U-14C]-acetate labeling of tumor and liver of xenografted mice; format: in vivo, mouse; conditions: 30 mg/kg intraperitoneal, within 3 hours
Procedure: In a parallel experiment to determine fatty acid synthesis activity in treated and control tumors, a group of MCF-7 xenografted mice were treated with C75 or vehicle at above doses and sacrificed after 3 hours. Tumor and liver tissue were ex vivo labeled with [U^14-C] acetate, lipids were extracted and counted as described (Pizer, et al, 1996).

[8] = tested on: SKBR3 and MCF7 human breast cancer cells; experiment: Clonogenic assay (Example 2); format: cell-based; conditions: for cytotoxicity in clonogenic assays: inhibitors 6 hours, dose range for ACC or FAS inhibition
Procedure: Cells and inhibitors were as described for Example 1. For clonogenic assays, 4×10^5 cells were plated in […] flasks with inhibitors added for 6 hours in concentrations listed. Equal numbers of treated cells and controls were plated in 60 mm dishes. Clones were stained and counted after 7 to 10 days.

MCF-7 xenografts [9] = experiment: Histology of treated xenograft tumors; format: in vivo, mouse; conditions: 6 hours after 30 mg/kg
Procedure: as §2

MCF-7 cells [10] = experiment: Clonogenic assay (Example 11); format: cell-based, human; conditions: 6 h exposure; TOFA at 5 μg/ml
Procedure: After overnight incubation at 37° C., 1×10^6 MCF-7 cells were exposed to drugs as indicated for 6 h, washed, detached by trypsin digestion, counted and plated at 1000 or 500 cells/60-mm plate in triplicate. Colonies were stained with crystal violet and counted 4-6 days after plating. Controls consisted of cells incubated with DMSO without drugs. Error bars represent standard error of the mean.

[11] = in vivo; cited from earlier work
CPT-1 = experiment: Carnitine palmitoyltransferase-1 (CPT-1) assay in permeabilized MCF-7 cells; format: cell-based, human
Procedure: MCF-7 cells were plated in RPMI 1640 with 10% fetal bovine serum at 1×10^6 cells in six-well plates in triplicate. Following overnight incubation at 37° C., medium was removed and replaced with 700 μl of assay medium consisting of: 50 mM imidazole, 70 mM KCl, 80 mM sucrose, 1 mM EGTA, 2 mM MgCl2, 1 mM DTT, 1 mM KCN, 1 mM ATP, 0.1% fatty acid free bovine serum albumin, 70 μM palmitoyl-CoA, 0.25 μCi (methyl-^14C]L-camitine, 40 μg digitonin with or without 20 μM malonyl-CoA or other indicated inhibitors.
After incubation for 3 or 6 minutes at 37° C., the reaction was stopped by the addition of 500 μl of ice-cold 4 M perchloric acid. Cells were then harvested and centrifuged at 10,000× g for 5 min. The pellet was washed with 500 μl ice cold perchloric acid and centrifuged again. The resulting pellet was resuspended in 800 μl dH2O and extracted with 150 μl of butanol. The butanol phase was counted by liquid scintillation and represents the acylcarnitine derivative.

MCF-7 cells [12] = experiment: Fatty acid oxidation, 14CO2 released from [14C]palmitate; format: cell-based, human
Procedure: Fatty acid oxidation was measured by trapping and counting the ^14CO2 released from the oxidation of [^14C]palmitate in base. 1×10^6 MCF-7 cells were plated in T-25 flasks in triplicate and incubated overnight at 37° C. […] After 2 hours, medium with drugs was removed and cells were preincubated for 30 minutes with 1.5 ml of the following buffer: 114 mM NaCl, 4.7 mM KCI, 1.2 mM KH2PO4, 1.2 mM MgSO4, glucose 11 mM. After preincubation, 200 μl of assay buffer was added containing: 114 mM NaCl, 4.7 mM KCl, 1.2 mM KH2PO4, 1.2 mM MgSO4, glucose 11 mM, 2.5 mM palmitate (containing with 100 μCi of [1-^14C]palmitate) bound to albumin, 0.4 mM L-camitine, and cells were incubated at 37° C. for 2 hours. Following the incubation, 400 μl of benzothonium hydrochloride was added to the center well to collect released ^14CO2. […] The flasks with wells were then incubated for 2 hours at 37° C. after which the benzothonium hydrochloride was removed and counted for ^14C.

SKBR3 and MCF7 cells = experiment: Apoptosis by multiparameter flow cytometry, merocyanine 540 staining; format: cell-based, human
Procedure: Apoptosis was measured by multiparameter flow cytometry using a FACStar^Plus flow cytometer equipped with argon and krypton lasers (Becton Dickinson). Apoptosis was quantified using merocyanine 540 staining (Sigma), which detects altered plasma membrane phospholipid packing that occurs early in apoptosis, added directly to cells from culture (Pizer, et al., 1998; Mower, et al., 1994, “Decreased membrane pospholipid packing and decreased cell size precede DNA cleavage in mature mouse B cell apoptosis, J. Immunol., 152:4832-4842). In some experiments, chromatin conformational changes of apoptosis were simultaneously measured as decreased staining with LDS-751 (Exciton) (Frey, et al., 1995, “Nucleic acid dyes for detection of apoptosis in live cells,” Cytometry, 21:265-274). […] Cells were stained with LDS-751 at a final concentration of 100 nM from a 1 mM stock in DMSO. The merocyanine 540-positive cells were marked by an increase in red fluorescence, collected at 575+/−20 nm, 0.5 to 2 logs over merocyanine 540-negative cells. […] Data were collected and analyzed using CellQuest software (Becton Dickinson). In these experiments, all LDS-751 dim cells were merocyanine 540 bright, however a population of merocyanine 540 bright cells were detected that were not yet LDS-751 dim. All merocyanine 540 bright cells were classified as apoptotic.

M-CPT-1 = conditions: cited from earlier work

## C=C1C(=O)OC(CCCCCCCC)C1C(=O)O (stereo not shown) [C75]
[1]
  [U14C-acetate] incorporation into lipids: inhibited
  dose range of maximal inhibition of FA synthesis: ~10 µg/mL
MCF-7 cells [2]
  growth inhibition: significant growth inhibition over control
MCF-7 cells [3]
  malonyl-CoA levels increased over controls: 370%
[4]
  LD10: 40 mg/kg
[5]; 30 mg/kg, outbred nude mice
  tolerability: well tolerated
[5]; following C75 treatment
  histological analysis of liver and other host tissues: no evidence of any short or long term toxicity
[5]; weekly intraperitoneal treatment
  toxicity noted: transient reversible weight loss was the only toxicity noted
MCF-7 xenografts [6]
  difference in tumor growth compared to vehicle controls: greater than eight-fold
[7]
  reduction of fatty acid synthesis in MCF-7 xenografts: 70%
  reduction of fatty acid synthesis in ex vivo labeled liver: 76%
[8]
  cytotoxicity in clonogenic assays: significantly cytotoxic
MCF-7 xenografts [9]
  tumor histology: numerous apoptotic bodies throughout the tumor tissue

## O=C([O-])C1(CCCCCCOc2ccc(Cl)cc2)CO1.[Na+] (stereo not shown) [Etomoxir]
MCF-7 cells [2]; 200 μg/ml, the only effective dose
  reduction in growth: significant reduction in growth
MCF-7 cells [2]
  growth inhibition: significant growth inhibition over control
MCF-7 cells [2]; doses known to inhibit CPT-1 and fatty acid oxidation, 48 or 72 h, Example 10
  growth inhibition or cytotoxicity: no significant growth inhibition or cytotoxicity
MCF-7 cells [2]; over 72 h, Example 7
  growth inhibition of MCF-7 cells: dose dependent growth inhibition of MCF-7 cells over 72 h greater than that of C75 at 5 μg/ml
MCF-7 cells [10]
  cytotoxicity in clonogenic assay: not significantly cytotoxic
[11]
  toxicity in humans treated for diabetes: without significant toxicity or weight loss
CPT-1; 10 μg/ml
  reduction in CPT-1 activity: 75%
MCF-7 cells [12]; 50 μg/ml
  fatty acid oxidation decreased over control: > 50%

## CCCCCCCCCCCCCCOc1ccc(C(=O)O)o1 [TOFA, 5-(tetradecyloxy)-2-furoic acid]
[1]
  [U14C-acetate] incorporation into lipids: inhibited
  dose range of maximal inhibition of FA synthesis: 1 to 5 µg/mL
MCF-7 cells [10]
  cytotoxicity in clonogenic assay: not significantly cytotoxic
SKBR3 and MCF7 cells
  increase in apoptosis: < 5%
SKBR3 and MCF7 cells; SKBR3 and MCF7 cells
  TOFA rescue from cerulenin induced apoptosis: rescued cells from cerulenin induced apoptosis
CPT-1
  direct inhibition of CPT-1: does not cause CPT-1 inhibition
MCF-7 cells [3]; 20 μg/ml
  reduction of malonyl-CoA levels: 60%
[8]
  reduction in clonogenicity: no reduction
  cytotoxicity in clonogenic assays: non-toxic or stimulatory
[8]; MCF7 cells
  TOFA rescue of C75 cytotoxicity in clonogenic assay: modest rescue
  TOFA rescue of cerulenin cytotoxicity in clonogenic assay: modest rescue
MCF-7 cells [12]; data not shown
  changes in fatty acid oxidation: nor does TOFA cause significant changes in fatty acid oxidation

## C/C=C/C/C=C/CCC(=O)[C@H]1O[C@H]1C(N)=O [cerulenin]
[1]; MCF-7, 10 μg/ml, within 2 hours
  reduction in fatty acid synthesis: > 50%
[1]
  [U14C-acetate] incorporation into lipids: inhibited
  dose range of maximal inhibition of FA synthesis: ~10 µg/mL
SKBR3 and MCF7 cells
  apoptosis: > 85%
MCF-7 cells [3]; 10 μg/ml
  increase in malonyl-CoA: nine-fold
MCF-7 cells [3]
  malonyl-CoA levels increased over controls: 930%
[8]
  reduction in clonogenicity: 70%
  cytotoxicity in clonogenic assays: significantly cytotoxic
MCF-7 cells [12]; 10 μg/ml, 2 hours
  reduction in fatty acid oxidation compared to control: ~50%

## CC(C)(COP(=O)(O)OP(=O)(O)OC[C@H]1O[C@@H](n2cnc3c(N)ncnc32)[C@H](O)[C@@H]1OP(=O)(O)O)[C@@H](O)C(=O)NCCC(=O)NCCSC(=O)CC(=O)O [malonyl-CoA]
M-CPT-1
  sensitivity of M-CPT-1 versus L-CPT-1 to malonyl-CoA inhibition: 100 fold
